Reference: patent EP1951308B1, “COMBINATION PREPARATIONS CONTAINING PHYSIOLOGICAL CELL MEMBRANE CONSTITUENTS INCLUDING PHOSPHATIDYLSERINE, CHOLINE AND A PYRIMIDINE NUCLEOSIDE/NUCLEOTIDE” (Susilo, Gisela, priority 2005, dated 2007)
Entries after “also recorded” stand apart in the source; their conditions may differ.

System: elektrische Hirnaktivität
Test: EEG recording (CATEEM system, 17 electrodes, 10/20 system) of electrical brain activity after a single oral intake, compared with placebo; studies 1, 3, 4 and 5
Type: in vivo, gesunden Testpersonen
Details: for Hirnaktivität / Hirnleistung / Gehirnfunktion (Stimulierung): conclusion in words drawn from the EEG results; for delta Aktivität in Bezug auf die Referenz (Placebo) / Veränderung der delta Aktivität im Vergleich zu Placebo: oral, Augen offen; for Veränderung der delta Aktivität im Vergleich zu Placebo: during 4 Stunden after intake, studies 3-5; for neuro-regenerierende Wirkung: summary of Studienbeispiele 1 - 5, EEG, single oral dose; for delta Power (delta Aktivität): study 1, recording condition not stated, 1-4 h after oral intake

Compound | Hirnaktivität / Hirnleistung / Gehirnfunktion (Stimulierung) | delta Aktivität in Bezug auf die Referenz (Placebo) (1 h after intake) [%] | delta Aktivität in Bezug auf die Referenz (Placebo) (2h after intake) [%] | delta Aktivität in Bezug auf die Referenz (Placebo) (4h after intake) [%] | Veränderung der delta Aktivität im Vergleich zu Placebo (result in words) | neuro-regenerierende Wirkung | Beta-Aktivitäten (beta Power) (result in words, study 1) | alpha Power (alpha Aktivität) (result in words, study 1) | delta Aktivitäten (result in words, study 1, Augen offen) | delta Power (delta Aktivität) (result in words) | delta Power (delta Aktivität) (result in words, listed as INDO I)
C[N+](C)(C)CCOP(=O)([O-])OP(=O)(O)OC[C@H]1O[C@@H](n2ccc(N)nc2=O)[C@H](O)[C@@H]1O [CDP-Cholin, Cytidindiphosphocholin] | nicht bzw. nur leicht jedoch nicht signifikant steigern | 98 | 102 | 96 | geringfügige aber im Vergleich zum Placebo-Arm nicht signifikante Veränderung | - |  |  |  |  | 
Phosphatidylserin | nicht bzw. nur leicht jedoch nicht signifikant steigern; also recorded: nicht beobachtet | 96 | 94 | 94 | keinen signifikanten Veränderungen | - | nur bei einem Messzeitpunkt nämlich 3 Stunden nach Verabreichung des Wirkstoffs eine statistisch signifikante Abnahme | leichter aber nicht signifikanter Zunahme | während der zweiten und dritten Stunde vermindert, aber keine statistische Signifikanz | Abnahme des delta Power | Abnahme der elektrischen delta Aktivität (delta Power), die jedoch nur 4 Stunden nach Applikation statistisch signifikant war
